Tests used:
[1] = target: FGFR1 kinase domain recombinant protein (Homo sapiens, UniProt P11362); test: FGFR1 enzyme activity at molecular level (ELISA, Poly(Glu,Tyr) 4:1 substrate)
Experimental: (§1) The plate was placed at 37° C. for 12-16 hours. The liquid in the well was discarded, the plate was washed, and the panel was washed three times with 200 μL/well of T-PBS (PBS containing 0.1% Tween-20) for 5 minutes each time.
(§2) 50 μL of ATP solution diluted with reaction buffer (50 mM HEPES pH 7.4, 50 mM MgCl2, 0.5 mM MnCl2, 0.2 mM Na3VO4, 1 mM DTT) was added to each well to a final concentration of 5 μM. The compound was diluted to a suitable concentration in DMSO, 1 μL/well or containing the corresponding concentration of DMSO (negative control well), and the FGFR1, FGFR4 kinase domain recombinant protein diluted in 49 μL of reaction buffer was added to initiate the reaction. Two control wells without ATP were required for each experiment. The reaction was carried out for 1 hour at 37° C. on a shaker (100 rpm). The plate was washed three times with T-PBS. Primary antibody, PY99 dilution was added at 100 μL/well and shaken at 37° C. for 0.5 hour. The plate was washed three times with T-PBS. Secondary antibody, horseradish peroxidase-labeled goat anti-mouse IgG dilution was added at 100 μL/well, and shaken at 37° C. for 0.5 hour. […] (Ultrasound was required for the dissolution of OPD, and the chromogenic solution needed to be prepared when used). 2 M H2SO4 was added at 50 μL/well to quench the reaction and a tunable wavelength microplate reader SPECTRA MAX 190 was used at a wavelength of 490 nm.
(§3) The inhibition rate of the sample was obtained by the following formula:
(§4) The IC50 value was obtained by four-parameter regression using the software attached to the microplate reader.

[2] = target: FGFR4 kinase domain recombinant protein (Homo sapiens, UniProt P22455); test: FGFR4 enzyme activity at molecular level (ELISA, Poly(Glu,Tyr) 4:1 substrate)
Sequence of FGFR4 kinase domain recombinant protein (P22455 467-755 limits assumed): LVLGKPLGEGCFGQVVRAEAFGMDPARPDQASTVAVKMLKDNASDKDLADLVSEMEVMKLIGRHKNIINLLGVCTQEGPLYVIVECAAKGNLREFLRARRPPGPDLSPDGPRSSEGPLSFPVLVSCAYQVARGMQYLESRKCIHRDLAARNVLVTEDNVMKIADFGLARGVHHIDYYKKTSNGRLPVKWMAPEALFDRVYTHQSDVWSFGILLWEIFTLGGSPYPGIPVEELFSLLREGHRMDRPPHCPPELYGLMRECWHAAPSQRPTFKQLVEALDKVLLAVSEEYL
Experimental: as §1, §2, §3, §4

Sequence of FGFR1 kinase domain recombinant protein (P11362 478-767 limits assumed): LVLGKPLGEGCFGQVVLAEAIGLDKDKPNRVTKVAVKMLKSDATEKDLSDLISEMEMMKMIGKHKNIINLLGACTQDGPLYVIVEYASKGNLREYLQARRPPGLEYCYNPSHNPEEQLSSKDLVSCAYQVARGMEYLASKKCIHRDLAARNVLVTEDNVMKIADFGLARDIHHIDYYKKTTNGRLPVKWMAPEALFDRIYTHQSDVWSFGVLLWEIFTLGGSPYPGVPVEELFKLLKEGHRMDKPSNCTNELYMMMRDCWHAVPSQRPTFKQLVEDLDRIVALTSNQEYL

Structure (SMILES) | IC50 [1] [µM] | IC50 [2] [µM] | FGFR inhibitory activity (in words) ([1]; FGFR1 and FGFR4 enzymes, conclusion from Table 2)
COCCN(C)C/C=C/C(=O)N1CCC(n2cc(-c3cc4cc(C)cc(OC)c4s3)c3c(N)ncnc32)C1 (stereo not shown) [NO. 81, (E)-1-(3-(4-amino-5-(7-methoxy-5-methylbenzothiophene-2-yl)-7H-pyrrole[2,3-d]pyrimidine-7-yl)pyrrolidine-1-yl)-4-((2-methoxyethyl) (methyl)amino)but-2-en-1-one] | < 0.01 | 0.01 to 0.1 | 
C=CC(=O)N1C[C@@H](n2nc(-c3cc4cc(C)cc(OC)c4s3)c3c(N)ncnc32)C[C@H]1C(=O)N(C)CCN(C)C [NO. 75] | < 0.01 |  | 
C=CC(=O)N1CC[C@@H](n2cc(-c3cc4cc(C)cc(OC)c4s3)c3c(N)ncnc32)C1 [NO. 11, (R)-1-(3-(4-amino-5-(7-methoxy-5-methylbenzothiophene-2-yl)-7H-pyrrole[2,3-d]pyrimidine-7-yl)pyrrolidine-1-yl)prop-2-en-1-one] | < 0.01 | 0.01 to 0.1 | 
COc1cc(C)cc2cc(-c3cn(C4CCN(C(=O)/C=C/CN5CCCC5)C4)c4ncnc(N)c34)sc12 (stereo not shown) [NO. 7, (E)1-(3-(4-amino-5-(7-methoxy-5-methylbenzothiophene-2-yl)-7H-pyrrole[2,3-d]pyrimidine-7-yl)pyrrolidine-1-yl)-4-(pyrrolidine-1-yl)but-2-en-1-one] | < 0.01 | 0.01 to 0.1 | 
C=C(CN1CCN(C)CC1)C(=O)N1CC(n2cc(-c3cc4cc(C)cc(OC)c4s3)c3c(N)ncnc32)C1 [NO. 52, 1-(3-(4-amino-5-(7-methoxy-5-methylbenzothiophene-2-yl)-7H-pyrrole[2,3-d]pyrimidine-7-yl)azetidine-1-yl)-2-((4-methylpiperazin-1-yl)methylene)prop-2-en-1-one] | < 0.01 | < 0.01 | 
C=CC(=O)Nc1cccc(Cn2nc(-c3cc4cc(C)cc(OC)c4s3)c3c(N)ncnc32)c1 [NO. 78, N-(3-((4-amino-3-(7-methoxy-5-methylbenzothiophene-2-yl)-1H-pyrazole[3,4-d]pyrimidine-1-yl)methyl)phenyl)acrylamide] | < 0.01 | 0.01 to 0.1 | 
C=CC(=O)N1CC(n2cc(-c3cc4cc(C)cc(OC)c4s3)c3c(N)ncnc32)CC1CO (stereo not shown) [NO. 70, 1-(4-(4-amino-5-(7-methoxy-5-methylbenzothiophene-2-yl)-7H-pyrrole[2,3-d]pyrimidine-7-yl)-2-(hydroxymethyl)pyrrolidine-1-yl)prop-2-en-1-one] | < 0.01 |  | 
C=CC(=O)N1CC[C@H](n2cc(-c3cnc4ccccc4c3)c3c(N)ncnc32)C1 [Control compound, (S)-1-(3-(4-amino-5-(quinolin-3-yl)-7H-pyrrole[2,3-d]pyrimidine-7-yl)pyrrolidine-1-yl)prop-2-en-1-one, reference compound] | > 0.1 | 0.01 to 0.1 | substantially no FGFR inhibitory activity
C=C(CN(CC)CC)C(=O)N1CC[C@H](n2cc(-c3cc4cc(C)cc(OC)c4s3)c3c(N)ncnc32)C1 [NO. 46, (S) 1-(3-(4-amino-5-(7-methoxy-5-methylbenzothiophene-2-yl)-7H-pyrrole[2,3-d]pyrimidine-7-yl)pyrrolidine-1-yl)-2-((diethylamino)methylene)prop-2-en-1-one] | 0.01 to 0.1 | < 0.01 | 
C=C(CN(CC)CC)C(=O)N1CC(n2cc(-c3cc4cc(C)cc(OC)c4s3)c3c(N)ncnc32)C1 [NO. 51, 1-(3-(4-amino-5-(7-methoxy-5-methylbenzothiophene-2-yl)-7H-pyrrole[2,3-d]pyrimidine-7-yl)azetidine-1-yl)-2-((diethylamino)methylene)prop-2-en-1-one] | < 0.01 | < 0.01 | 
COc1cc(C)cc2cc(-c3cn(C4CCN(C(=O)/C=C/CN5CCCCC5)C4)c4ncnc(N)c34)sc12 (stereo not shown) [NO. 8, (E) 1-(3-(4-amino-5-(7-methoxy-5-methylbenzothiophene-2-yl)-7H-pyrrole[2,3-d]pyrimidine-7-yl)pyrrolidine-1-yl)-4-(piperidine-1-yl)but-2-en-1-one] | < 0.01 | 0.01 to 0.1 | 
C=CC(=O)N1CCC(n2cc(-c3cc4cc(C)cc(OC)c4s3)c3c(N)nc(OCCN4CCOCC4)nc32)C1 (stereo not shown) [NO. 66, 1-(3-(4-amino-5-(7-methoxy-5-methylbenzothiophene-2-yl)-2-(2-morpholineethoxy)-7H-pyrrole [2,3-d]pyrimidine-7-yl)pyrrolidine-1-yl)prop-2-en-1-one] | > 0.1 |  | 
C=C(CN(C)C)C(=O)N1CC(n2cc(-c3cc4cc(C)cc(OC)c4s3)c3c(N)ncnc32)C1 [NO. 53, 1-(3-(4-amino-5-(7-methoxy-5-methylbenzothiophene-2-yl)-7H-pyrrole[2,3-d]pyrimidine-7-yl)azetidine-1-yl)-2-((dimethylamino)methylene)prop-2-en-1-one] | < 0.01 | < 0.01 | 
COc1cc(C)cc2cc(-c3cn(C4CCNC4)c4ncnc(N)c34)sc12 (stereo not shown) [NO. 9, 5-(7-methoxy-5-methylbenzothiophene-2-yl)-7-(pyrrolidine-3-yl)-7H-pyrrole[2,3-d]pyrimidine-4-amine] | 0.01 to 0.1 | > 0.1 | 
C=CC(=O)N1CCC(n2c(Cl)c(-c3cc4cc(C)cc(OC)c4s3)c3c(N)ncnc32)C1 (stereo not shown) [NO. 71] | < 0.01 |  | 
C=CC(=O)N1CC(n2cc(-c3cc4cc(C)cc(OC)c4o3)c3c(N)ncnc32)C1 [NO. 23, 1-(3-(4-amino-5-(7-methoxy-5-methylbenzofuran-2-yl)-7H-pyrrole[2,3-d]pyrimidine-7-yl)azetidine-1-yl)prop-2-en-1-one] |  | > 0.1 | 
C=CC(=O)N1CCC(Cn2cc(-c3cc4cc(C)cc(OC)c4s3)c3c(N)ncnc32)C1 (stereo not shown) [NO. 20, 1-(3-((4-amino-5-(7-methoxy-5-methylbenzothiophene-2-yl)-7H-pyrrole [2,3-d]pyrimidine-7-yl)methyl)pyrrolidine-1-yl)prop-2-en-1-one] | 0.01 to 0.1 | 0.01 to 0.1 | 
CCN(C)C/C=C/C(=O)N1CCC(n2cc(-c3cc4cc(C)cc(OC)c4s3)c3c(N)ncnc32)C1 (stereo not shown) [NO. 5, (E) 1-(3-(4-amino-5-(7-methoxy-5-methylbenzothiophene-2-yl)-7H-pyrrole[2,3-d]pyrimidine-7-yl)pyrrolidine-1-yl)-4-(ethyl(methy)amino)but-2-en-1-one] | < 0.01 | 0.01 to 0.1 | 
C=CC(=O)N1CCC(n2cc(-c3cc4cc(C(F)(F)F)cc(OC)c4s3)c3c(N)ncnc32)C1 (stereo not shown) [NO. 58, 1-(3-(4-amino-5-(7-methoxy-5-(trifluoromethyl)benzothiophene-2-yl)-7H-pyrrole[2,3-d]pyrimidine-7-yl)pyrrolidine-1-yl)prop-2-en-1-one] | < 0.01 | < 0.01 | 
C=CC(=O)N1CC[C@H](n2cc(-c3cc4cc(Cl)cc(OC)c4s3)c3c(N)ncnc32)C1 [NO. 59, (S)-1-(3-(4-amino-5-(5-chloro-7-methoxybenzothiophene-2-yl)-7H-pyrrole[2,3-d]pyrimidine-7-yl)pyrrolidine-1-yl)prop-2-en-1-one] | < 0.01 |  | 
C=CC(=O)N1CCC(n2cc(-c3cc4cc(C)cc(OC)c4s3)c3c(N(C)C)ncnc32)C1 (stereo not shown) [NO. 63, 1-(3-(4-(dimethylamino)-5-(7-methoxy-5-methylbenzothiophene-2-yl)-7H-pyrrole[2,3-d]pyrimidine-7-yl)pyrrolidine-1-yl)prop-2-en-1-one] | > 0.1 | > 0.1 | 
C/C=C/C(=O)N1CCC(n2cc(-c3cc4cc(C)cc(OC)c4s3)c3c(N)ncnc32)C1 (stereo not shown) [NO. 18, (E)-1-(3-(4-amino-5-(7-methoxy-5-methylbenzothiophene-2-yl)-7H-pyrrole[2,3-d]pyrimidine-7-yl)pyrrolidine-1-yl)but-2-en-1-one] | < 0.01 | 0.01 to 0.1 | 
C=CC(=O)N1CC[C@H](n2cc(-c3cc4cc(F)cc(OC)c4s3)c3c(N)ncnc32)C1 [NO. 60, (S)-1-(3-(4-amino-5-(5-fluoro-7-methoxybenzothiophene-2-yl)-7H-pyrrole[2,3-d]pyrimidine-7-yl)pyrrolidine-1-yl)prop-2-en-1-one] | < 0.01 |  | 
C=CC(=O)N1CC[C@H](n2cc(-c3cc4cc(Br)cc(OC)c4s3)c3c(N)ncnc32)C1 [NO. 62, (S)-1-(3-(4-amino-5-(5-bromo-7-methoxybenzothiophene-2-yl)-7H-pyrrole[2,3-d]pyrimidine-7-yl)pyrrolidine-1-yl)prop-2-en-1-one] | < 0.01 |  | 
C=C(CN1CCN(C)CC1)C(=O)N1CC[C@H](n2cc(-c3cc4cc(C)cc(OC)c4s3)c3c(N)ncnc32)C1 [NO. 49, (S) 1-(3-(4-amino-5-(7-methoxy-5-methylbenzothiophene-2-yl)-7H-pyrrole[2,3-d]pyrimidine-7-yl)pyrrolidine-1-yl)-2-((4-methylpiperazin-1-yl)-methylene)prop-2-en-1-one] | 0.01 to 0.1 | < 0.01 | 
COc1cc(C)cc2cc(-c3cn(C4CCN(C(=O)C(C#N)=CC5CC5)C4)c4ncnc(N)c34)sc12 (stereo not shown) [NO. 25, 2-(3-(4-amino-5-(7-methoxy-5-methylbenzothiophene-2-yl)-7H-pyrrole[2,3-d]pyrimidine-7-yl)pyrrolidine-1-carbonyl)-3-cyclopropyl acrylonitrile] | < 0.01 | < 0.01 | 
COc1cc(C)cc2cc(-c3cn(C4CCN(C(=O)/C=C/CN5CCC(F)C5)C4)c4ncnc(N)c34)sc12 (stereo not shown) [NO. 69, (E)-1-(3-(4-amino-5-(7-methoxy-5-methylbenzothiophene-2-yl)-7H-pyrrole[2,3-d]pyrimidine-7-yl)pyrrolidine-1-yl)-4-(3-fluoropyrrolidin-1-yl)but-2-en-1-one] | < 0.01 | 0.01 to 0.1 | 
C=C(CN1CCOCC1)C(=O)N1CC[C@H](n2cc(-c3cc4cc(C)cc(OC)c4s3)c3c(N)ncnc32)C1 [NO. 45, (S) 1-(3-(4-amino-5-(7-methoxy-5-methylbenzothiophane-2-yl)-7H-pyrrole[2,3-d]pyrimidine-7-yl)pyrrolidine-1-yl)-2-(morpholinemethylene)prop-2-en-1-one] | 0.01 to 0.1 | < 0.01 | 

From patent US20190367520A1, “NEW COMPOUND HAVING FGFR INHIBITORY ACTIVITY AND PREPARATION AND APPLICATION THEREOF” (SHANGHAI INSTITUTE OF MATERIA MEDICA, CHINESE ACADEMY OF …, priority 2016, published 2019)
